Test results as given in US20060171935A1, “Protecting cell therapy for neurological disorders including Parkinson's disease” (priority 2005, published 2006).
Read-outs that look alike come from different tables or passages of the source. d = 2'-deoxy (DNA); r = 2'-OH (RNA)

Key:
[1] = test system: primary culture midbrain dopamine neurons; experiment: Parkin siRNA in primary midbrain dopamine neuron cultures; type: cell-based, mice
Description: (§1) Cerebellar granule neurons from P6 mice were purified and transfected essentially as described (Scheiffele et al., Neuroligin expressed in nonneuronal cells triggers presynaptic development in contacting axons. Cell, 101:657-69, 2000). Dissociated cortical neurons from E16.5 mice were prepared and cultured as described (Scheiffele et al., Neuroligin expressed in nonneuronal cells triggers presynaptic development in contacting axons. Cell, 101:657-69, 2000). Primary midbrain cultures were prepared from E13.5 mouse embryos, as described (Hynes et al., Induction of midbrain dopaminergic neurons by Sonic hedgehog. Neuron, 15:35-44, 1995). Cells were treated for 24 h with or without kainate (250 or 500 μM as indicated; Sigma) or MPP^+ (1 or 10 μM as indicated; Sigma), stained for 20 min with 0.5 μg/ml Hoechst 33342 (Sigma), and visualized by fluorescence microscopy. For granule cell assays, at least 100 cells in two 20× fields were scored in duplicate for GFP and/or Hoechst signal. For immunohistochemistry, cell cultures were washed twice with PBS, and fixed for 20 min with 4% (w/v) paraformaldehyde. Cells were blocked for 1 h, at room temperature, with 3% (v/v) goat serum in PBS, and then incubated overnight, at 4° C., with specific antibodies, as indicated. Cells were washed, incubated for 1 h at room temperature with appropriately-labeled secondary antibodies, and visualized by fluorescence microscopy. For midbrain culture experiments, DAT-specific immunoreactivity (pixels), and cytoplasmic parkin and cyclin E immunoreactivity (mean pixel density), were quantified in triplicate, across nine fields of view, at 20× using Image software (Scion).
SiRNAs were synthesized by Dharmacon Research, Inc., and duplexes were formed as per the manufacturer's instructions (parkin siRNA sequence: 5′ […] […]dTdT 3′; DAT siRNA sequence: 5′ […]dTdT 3′; SERT siRNA sequence: 5′[…]dTdT 3′). Cortical cultures were transfected using Lipofectamine 2000 reagent (Life Technologies); primary midbrain cultures were transfected using Transmessenger (Qiagen), as described (Krichevsky and Kosik, RNAi functions in cultured mammalian neurons. Proc. Natl. Acad. Sci. USA, 99:11926-929, 2002).
Embryonic day 13.5 (E13.5) primary culture midbrain dopamine neurons, identified by immunohistochemical staining for the dopamine transporter (DAT) (Nirenberg et al., The dopamine transporter is localized to dendritic and axonal plasma membranes of nigrostriatal dopaminergic neurons. J. Neurosci., 16:436-47, 1996), were transfected with parkin siRNA (FIG. 7, panels F-J and P-T) or control siRNA (FIG. 7, panels A-E and K-O), and subsequently exposed to kainate, as above.

[2] = test system: primary cortical cultures; experiment: Parkin siRNA in kainate-treated primary cortical cultures, Western blot; type: cell-based, mice; settings: 25 nM siRNA
Description: as §1
SiRNAs were synthesized by Dharmacon Research, Inc., and duplexes were formed as per the manufacturer's instructions (parkin siRNA sequence: 5′ […] […]dTdT 3′; DAT siRNA sequence: 5′ […]dTdT 3′; SERT siRNA sequence: 5′[…]dTdT 3′). […]

DJ-1 deficient ES cells = type: cell-based
Description: DJ-1 has been hypothesized to function in the cellular response to oxidative stress. To investigate the role of DJ-1 in the oxidative stress response in vivo, DJ-1-deficient homozygous mutant (‘knockout’) cells and DJ-1 heterozygote (‘control’) ES cell clones were analyzed for cell viability in the context of increasing concentrations of H2O2. Heterozygous cells were used as controls because the ‘knockout’ subclones were derived from these. Cell viability was initially determined by MTT assay in triplicate (Fezoui et al. 2000). […] The increase in AV-positive cells implicated an apoptotic mechanism of cell death (FIG. 14F).
(§2) In Vivo Assays. ES cells plated in 96-well format (2.3×10^4 cells/well) were treated for 15 hours with H2O2 in ES media deficient in β-mercaptoethanol (Abeliovich et al. 2000). Cell viability (as a percent of untreated control) was determined by MTT assay in triplicate (Fezoui et al. 2000). Annexin V/Propidium Iodide (Molecular probes) staining was performed per the manufacturer's instructions. For dihydrorhodamine-123 staining (DHR, Molecular probes) (Walrand et al. 2003), cells were preincubated for 30 min with DHR (5 μM), washed with PBS, then treated with H2O2 in ES media deficient in β-mercaptoethanol for 15 min at 37° C. The FACS analysis was performed using a FACSTAR sorter (Becton Dickinson). Dopamine uptake assay was performed essentially as described (Farrer et al. 1998). Reported values represent specific uptake from which non-specific uptake, determined in the presence of mazindol, was subtracted, and normalized for protein content (BCA kit, Pierce).

citrate synthase (CS) = target: T1, citrate synthase (CS) (Sus scrofa, UniProt P00889); experiment: Suppression of heat-induced aggregation of citrate synthase (chaperone assay); type: biochemical; settings: 0.8 μM CS, 43° C.
T1 construct: purchased Sigma
T1 sequence (P00889 28-464): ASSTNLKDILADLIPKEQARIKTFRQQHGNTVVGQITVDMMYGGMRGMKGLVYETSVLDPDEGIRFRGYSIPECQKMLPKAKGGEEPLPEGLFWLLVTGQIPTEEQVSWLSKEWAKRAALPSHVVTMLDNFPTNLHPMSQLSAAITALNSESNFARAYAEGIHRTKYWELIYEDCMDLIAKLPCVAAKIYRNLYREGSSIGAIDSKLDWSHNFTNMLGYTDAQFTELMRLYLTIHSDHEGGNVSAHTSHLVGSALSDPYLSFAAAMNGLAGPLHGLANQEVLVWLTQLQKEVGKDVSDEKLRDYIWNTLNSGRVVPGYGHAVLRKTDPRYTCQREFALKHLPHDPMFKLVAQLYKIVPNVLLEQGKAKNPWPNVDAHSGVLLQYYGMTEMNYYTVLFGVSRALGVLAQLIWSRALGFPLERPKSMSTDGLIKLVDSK
Description: To test the redox regulation of DJ-1, the inventors assayed chaperone activity in the CS aggregation assay in the presence or absence of the reducing agent DTT. […] (FIG. 22D). […] To further test whether redox regulation might govern DJ-1 chaperone activity, reactivation studies using reduced DJ-1 were performed. DTT-reduced DJ-1 was incubated with H2O2 (10 mM in aggregation buffer for 10 min at 4° C. followed by dialysis against aggregation buffer for 2 h), and subsequently chaperone activity was measured in the CS thermal aggregation assay. […] This was not an indirect effect of residual H2O2 on CS aggregation, as H2O2 treatment of CS increased aggregation (unpublished data).
CS aggregation was performed in 40 mM HEPES (pH 7.8), 20 mM potassium hydroxinde, 50 mM potassium chloride, and 10 mM ammonium sulfate, and monitored in a thermostat-controlled fluorescence spectrophotometer with excitation and emission wavelengths at 500 nm and slit widths at 2.5 nm. Insulin aggregation was performed as described (Giasson et al. 2000). CS, insulin, RNase A, and GST were obtained from Sigma; human Hsp27 was obtained from Stressgen.

DJ-1-deficient ES cells = experiment: Rescue of DJ-1-deficient ES cells from H2O2, MTT viability; type: cell-based, murine; settings: transient transfection, 10 μM H2O2 for 15 h
Description: (A) DJ-1 cysteine-to-alanine mutants C106A, C53A, and a triple mutant that harbors mutations at all three cysteines in DJ-1 (C106A/C53A/C46A), as well as L166P, were tested for in vitro chaperone activity by CS aggregation suppression assay. (B) Self-association of DJ-1 cysteine mutants. Murine neuroblastoma CAD cells were transiently cotransfected with Flag-tagged human DJ-1 vectors (either WT or mutant) along with WT YFP-tagged human DJ-1. Lysates were immunoprecipitated with anti-Flag antibodies and probed by Western blotting with an antibody specific for human DJ-1. […] Lysates represent 20% of the input for the immunoprecipitate; Flag-DJ-1 migrates at 22 kDa, and YFP-DJ-1 migrates at 50 kDa. (C) DJ-1-deficient ES cells were transiently transfected with vector alone, WT DJ-1, or DJ-1 cysteine mutants, and exposed to 10 μM H2O2 for 15 h followed by MTT assay. The viability of the cells in the absence of drug treatment was not altered by the expression of WT or mutant DJ-1). Data are shown as the mean±SEM and were analyzed by ANOVA with Fisher's post-hoc test. *p<0.05.
To confirm that altered sensitivity to oxidative stress is a consequence of the loss of DJ-1, ‘rescue’ experiments by overexpressing wild-type or mutant human DJ-1 in ‘knockout’ ES cells were performed. Plasmids encoding human wild-type DJ-1, PD-associated L166P mutant DJ-1, or vector alone, were transiently transfected into DJ-1 deficient clones, and these were subsequently assayed for sensitivity to H2O2 using the MTT viability assay.
as §2

What does the source list for “5′ UUCCAAACCGG AUGAGUGGdTdT 3′ (UUCCAAACCGGAUGAGUGGTT; siRNA; sugars from the 5' end r19 d2, backbone not given here) [parkin siRNA, parkin-specific short interfering RNA synthesized by Dharmacon]”?
dopamine neuron sensitivity to MPP+ ([1]; MPP+ 10 μM): failed to alter dopamine neuron sensitivity; cyclin E or DAT immunoreactivity ([1]; absence of kainate): failed to alter cyclin E or DAT immunoreactivity; sensitization of DAT-negative neurons to kainate relative to DAT-positive population ([1]; cyclin E induction and apoptosis): significantly lesser extent; apoptosis of dopamine neurons ([1]; kainate): increased apoptosis; cyclin E accumulation in dopamine neurons ([1]; kainate): increased accumulation of cyclin E; DAT immunoreactivity ([1]; presence of kainate): decreased DAT immunoreactivity; cleaved-PARP (apoptosis marker) [2]: accumulation of cleaved poly (ADP-ribose) polymerase; cyclin E accumulation [2]: increased accumulation of cyclin E; parkin protein expression [2]: significantly reduced parkin expression

Which “sensitivity of DJ-1 deficient cells to toxin relative to heterozygous cells” value (DJ-1 deficient ES cells) does the source give for CC(=O)N[C@@H](CSC(=O)[C@]1([C@@H](O)C(C)C)NC(=O)[C@H](C)[C@@H]1O)C(=O)O [lactacystin] here?
The value was “sensitized”.

Which “sensitivity of DJ-1 deficient cells to toxin relative to heterozygous cells” value (DJ-1 deficient ES cells; 15 h exposure, MTT) does the source give for [Cl][Cu][Cl] [copper] here?
Its value is “sensitized”.

With OO [H2O2] as the molecule, how does the “sensitivity of DJ-1 deficient cells to toxin relative to heterozygous cells” value (DJ-1 deficient ES cells; 15 h exposure, MTT) read?
Its value is “significantly greater toxicity”.

Which “sensitivity of DJ-1 deficient cells to toxin relative to heterozygous cells” value (DJ-1 deficient ES cells; 15 h exposure, MTT) does the source give for CN[C@@H]1C[C@H]2O[C@@](C)([C@@H]1OC)n1c3ccccc3c3c4c(c5c6ccccc6n2c5c31)C(=O)NC4 [staurosporine] here?
Its value is “did not observe altered sensitivity”.

With tunicamycin as the molecule, how does the “sensitivity of DJ-1 deficient cells to toxin relative to heterozygous cells” value (DJ-1 deficient ES cells; 15 h exposure, MTT) read?
The value was “did not observe altered sensitivity”.

With C[C@@H]1C[C@@H]([C@H](O)CC2CC(=O)NC(=O)C2)C(=O)[C@@H](C)C1 [cycloheximide] as the molecule, how does the “sensitivity of DJ-1 deficient cells to toxin relative to heterozygous cells” value (DJ-1 deficient ES cells; 15 h exposure, MTT) read?
Its value is “did not observe altered sensitivity”.

B1: C106A: DJ-1 cysteine-to-alanine mutant at cysteine 106 (protein, UniProt Q99497 1-189, looked up, variant C106A)
chain: MASKRALVILAKGAEEMETVIPVDVMRRAGIKVTVAGLAGKDPVQCSRDVVICPDASLEDAKKEGPYDVVVLPGGNLGAQNLSESAAVKEILKEQENRKGLIAAIAAGPTALLAHEIGFGSKVTTHPLAKDKMMNGGHYTYSENRVEKDGLILTSRGPGTSFEFALAIVEALNGKEVAAQVKAPLVLKD
For B1, which “suppression of heat-induced aggregation of CS (chaperone activity)” value (citrate synthase (CS)) is on record?
Its value is “does not alter the basal activity”.

And the “viability of DJ-1 knockout cells in the presence of H2O2” value (DJ-1-deficient ES cells)?
The value was “robustly rescued”.

B2: C106A/C53A/C46A: triple mutant that harbors mutations at all three cysteines in DJ-1 (protein, UniProt Q99497 1-189, looked up, variant C106A C53A C46A)
chain: MASKRALVILAKGAEEMETVIPVDVMRRAGIKVTVAGLAGKDPVQASRDVVIAPDASLEDAKKEGPYDVVVLPGGNLGAQNLSESAAVKEILKEQENRKGLIAAIAAGPTALLAHEIGFGSKVTTHPLAKDKMMNGGHYTYSENRVEKDGLILTSRGPGTSFEFALAIVEALNGKEVAAQVKAPLVLKD
For B2, which “suppression of heat-induced aggregation of CS (chaperone activity)” value (citrate synthase (CS)) is on record?
Its value is “loss of chaperone function”.

And the “viability of DJ-1 knockout cells in the presence of H2O2” value (DJ-1-deficient ES cells)?
Its value is “failed to protect”.
